Data published in patent US11540517B2, “Active compound combinations having insecticidal/acaricidal properties” (Bayer Aktiengesellschaft, priority 2017, dated 2023).

Legend:
Assay type in all cases: in vivo
[1] = system: Tetranychus urticae; test: Tetranychus urticae - spray test OP-resistant; conditions: mortality
Procedure: (§1) The expected efficacy of a given combination of two compounds is calculated as follows (see Colby, S. R., “Calculating Synergistic and antagonistic Responses of Herbicide Combinations”, Weeds 15, pp. 20-22, 1967): • If • X is the efficacy expressed in % mortality of the untreated control for test compound A at a concentration of m ppm respectively m g/ha, • Y is the efficacy expressed in % mortality of the untreated control for test compound B at a concentration of n ppm respectively n g/ha, • E is the efficacy expressed in % mortality of the untreated control using the mixture of A and B at m and n ppm respectively m and n g/ha, • then is
(§2) [formula] • If the observed insecticidal efficacy of the combination is higher than the one calculated as “E”, then the combination of the two compounds is more than additive, i.e. there is a synergistic effect.
Tetranyechus urticae—Spray Test OP-Resistant
Solvent: 78.0 parts by weight acetone
1.5 parts by weight dimethylformamide
Emulsifier: alkylarylpolyglycol ether
(§3) To produce a suitable preparation of active compound, 1 part by weight of active compound is mixed with the stated amount of solvents and is diluted with water, containing an emulsifier concentration of 1000 ppm, to the desired concentration. Further test concentrations are prepared by dilution with emulsifier containing water.
French bean (Phaseolus vulgaris) leaf disks infected with all instars of the two spotted spidermite (Tetranychus urticae), are sprayed with a preparation of the active ingredient of the desired concentration.
After the specified period of time, mortality in % is determined. 100% means all spider mites have been killed and 0% means none of the spider mites have been killed. The mortality values determined thus are recalculated using the Colby-formula (see above).

[2] = system: Spodoptera frugiperda; test: Spodoptera frugiperda - spray test; conditions: mortality
Procedure: as §1, §2
Spodoptera frugiperda—Spray Test
(§4) Solvent: 7 parts by weight of dimethylformamide
(§5) Emulsifier: alkylaryl polyglycol ether
as §3, with “solvent” for “solvents”
Cotton leaves (Gossypium hirsutum) are treated by being sprayed with the preparation of the active compound of the desired concentration and are infested with caterpillars of the fall army worm (Spodoptera frugiperda).
After the specified period of time mortality in % is determined. 100% means all the caterpillars have been killed and 0% means none of the caterpillars have been killed. The mortality values determined thus are recalculated using the Colby-formula (see above).

[3] = system: Phaedon cochleariae; test: Phaedon cochleariae - spray test; conditions: mortality
Procedure: as §1, §2
Phaedon cochleariae—Spray Test
as §4, §5
as §3, with “solvent” for “solvents”
After the specified period of time mortality in % is determined. 100% means all the beetle larvae have been killed and 0% means none of the beetle larvae have been killed. The mortality values determined thus are recalculated using the Colby-formula (see above).

[4] = system: Aphis gossypii; test: Aphis gossypii - spray test; conditions: 0.4 ppm, mortality
Procedure: as §1, §2
Aphis gossypii—Spray Test
as §4, §5
To produce a suitable preparation of active compound, 1 part by weight of active compound is mixed with the stated amount of solvent and is diluted with water, containing an emulsifier concentration of 1000 ppm, to the desired concentration. […]
After the specified period of time the mortality in % is determined. […] The mortality values determined thus are recalculated using the Colby-formula (see above).

## CN1COCN(Cc2cnc(Cl)s2)C1=N[N+](=O)[O-] (mixture of isomers) [Thiametoxam, (EZ)-3-(2-chloro-1,3-thiazol-5-ylmethyl)-5-methyl-1,3,5-oxadiazinan-4-ylidene(nitro)amine]
[1]; 0.1 g ai/ha
  Efficacy in % after 2 days: 0%
[1]; 0.4 g ai/ha
  Efficacy in % after 2 days: 0%
[1]; 1.6 g ai/ha
  Efficacy in % after 2 days: 0%

## CNC(=N[N+](=O)[O-])NCC1CCOC1 (racemic) [Dinotefuran, (EZ)-(RS)-1-methyl-2-nitro-3-(tetrahydro-3-furylmethyl)guanidine]
[1]; 0.2 g ai/ha, after 6 days
  Efficacy in % after 6 days: 0%

## C/C(=N\C#N)N(C)Cc1ccc(Cl)nc1 [Acetamiprid, (E)-N^1-[(6-chloro-3-pyridyl)methyl]-N^2-cyano-N-methylacetamidine]
[2]; 48 ppm
  Efficacy in % after 2 days: 0%
  Efficacy in % after 3 days: 0%
  Efficacy in % after 6 days: 10%
[2]; 96 ppm
  Efficacy in % after 1 day: 10%
  Efficacy in % after 2 days: 20%
  Efficacy in % after 3 days: 40%
  Efficacy in % after 6 days: 50%
[1]; 0.4 g ai/ha
  Efficacy in % after 2 days: 0%
[1]; 1.6 g ai/ha
  Efficacy in % after 2 days: 0%
[1]; 6.4 g ai/ha
  Efficacy in % after 2 days: 0%

## CN/C(=N\[N+](=O)[O-])NCc1cnc(Cl)s1 [Clothianidin, (E)-1-(2-chloro-1,3-thiazol-5-ylmethyl)-3-methyl-2-nitroguanidine]
[2]; 24 ppm
  Efficacy in % after 3 days: 40%
[2]; 48 ppm
  Efficacy in % after 1 day: 10%
[3]; 2 ppm
  Efficacy in % after 1 day: 10%
  Efficacy in % after 2 days: 10%
  Efficacy in % after 3 days: 25%
[3]; 4 ppm
  Efficacy in % after 3 days: 60%
[3]; 8 ppm
  Efficacy in % after 1 day: 45%
  Efficacy in % after 2 days: 55%
  Efficacy in % after 3 days: 75%

## Cc1cc(F)c(N=C2SCC(=O)N2CC(F)(F)F)cc1[S+]([O-])CC(F)(F)F (centres unmarked) [Cpd of formula (I)]
[2]; 2.4 ppm
  Efficacy in % after 3 days: 0%
[2]; 4.8 ppm
  Efficacy in % after 1 day: 0%
  Efficacy in % after 2 days: 0%
  Efficacy in % after 3 days: 0%
  Efficacy in % after 6 days: 0%
[2]; 9.6 ppm
  Efficacy in % after 1 day: 0%
  Efficacy in % after 2 days: 0%
  Efficacy in % after 3 days: 0%
  Efficacy in % after 6 days: 0%
[3]; 1 ppm
  Efficacy in % after 1 day: 0%
  Efficacy in % after 2 days: 0%
  Efficacy in % after 3 days: 0%
[3]; 2 ppm
  Efficacy in % after 3 days: 0%
[3]; 4 ppm
  Efficacy in % after 1 day: 0%
  Efficacy in % after 2 days: 10%
  Efficacy in % after 3 days: 10%
[1]; 0.1 g ai/ha
  Efficacy in % after 2 days: 0%

## O=C1C=C(N(Cc2ccc(Cl)nc2)CC(F)F)CO1 [Flupyradifurone, 4-[(6-chloro-3-pyridylmethyl)(2,2-difluoroethyl)amino]furan-2(5H)-one]
[1]; 0.4 g ai/ha
  Efficacy in % after 2 days: 0%
[1]; 1.6 g ai/ha
  Efficacy in % after 2 days: 0%
[1]; 6.4 g ai/ha
  Efficacy in % after 2 days: 0%

## O=[N+]([O-])N=C1NCCN1Cc1cnc(Cl)s1 [Imidaclothiz, (EZ)-1-(2-chloro-1,3-thiazol-5-ylmethyl)-N-nitroimidazolidin-2-ylideneamine]
[4]
  Efficacy in % after 6 days: 20%
[1]; 0.8 g ai/ha
  Efficacy in % after 2 days: 0%
[1]; 3.2 g ai/ha
  Efficacy in % after 2 days: 0%
[1]; 12.8 g ai/ha
  Efficacy in % after 2 days: 0%
